Experimental data: paper PMC7616177, “From structure to clinic: Design of a muscarinic M1 receptor agonist with the potential to treat Alzheimer’s disease” (Cell, 2021)

What was measured:
human M1 receptor [1] = target: T1, human M1 receptor (Homo sapiens, UniProt P11229); assay: Interaction with ACh in IP1 assay after phenoxybenzamine receptor depletion (Schild); format: cell-based
T1 construct: expressed in transfected cells
T1 sequence (P11229 1-460): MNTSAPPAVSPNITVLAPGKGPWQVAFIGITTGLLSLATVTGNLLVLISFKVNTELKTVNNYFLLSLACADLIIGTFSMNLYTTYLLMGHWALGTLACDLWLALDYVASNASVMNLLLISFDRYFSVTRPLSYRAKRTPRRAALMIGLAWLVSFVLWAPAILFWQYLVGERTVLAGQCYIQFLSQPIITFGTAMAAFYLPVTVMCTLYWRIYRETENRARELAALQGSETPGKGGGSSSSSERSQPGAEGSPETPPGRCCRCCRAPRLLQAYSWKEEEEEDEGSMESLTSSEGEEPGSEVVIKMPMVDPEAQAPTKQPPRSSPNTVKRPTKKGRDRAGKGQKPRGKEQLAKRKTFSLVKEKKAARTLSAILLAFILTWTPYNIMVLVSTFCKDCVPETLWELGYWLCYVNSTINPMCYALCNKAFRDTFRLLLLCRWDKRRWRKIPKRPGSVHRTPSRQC

human M1 receptor [2] = target: T1, human M1 receptor; assay: M1-receptor functional agonist assays (pERK1/2 and calcium mobilisation) for hits and SAR; format: cell-based
rats = assay: Cardiovascular telemetry in rats; conditions: telemetered rats
dogs [3] = assay: GLP cardiovascular safety pharmacology telemetry in dogs
M2-receptor = target: T2, M2-receptor (Homo sapiens, UniProt P08172); assay: [3H]-NMS equilibrium radioligand binding, M2
T2 sequence (P08172 1-466): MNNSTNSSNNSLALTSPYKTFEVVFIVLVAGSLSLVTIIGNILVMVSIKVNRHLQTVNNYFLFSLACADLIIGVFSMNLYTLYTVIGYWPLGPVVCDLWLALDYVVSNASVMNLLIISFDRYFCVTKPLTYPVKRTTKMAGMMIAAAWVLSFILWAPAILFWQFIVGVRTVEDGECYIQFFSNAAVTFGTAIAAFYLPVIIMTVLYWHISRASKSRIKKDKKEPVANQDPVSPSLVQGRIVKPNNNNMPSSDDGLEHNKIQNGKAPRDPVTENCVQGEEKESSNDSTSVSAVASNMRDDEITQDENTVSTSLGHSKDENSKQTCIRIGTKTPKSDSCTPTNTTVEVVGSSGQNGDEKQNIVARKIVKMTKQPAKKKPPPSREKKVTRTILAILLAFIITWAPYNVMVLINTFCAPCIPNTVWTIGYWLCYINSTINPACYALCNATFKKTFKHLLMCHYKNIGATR
Procedure: Non-specific binding (NSB) was determined in the presence of 1 μM atropine). Reactions were terminated by rapid filtration onto GF/B filter paper (Whatman, Maidstone, UK) and three washes with 3 mL ice-cold 0.9% NaCl using a Brandel harvester (M-24TI; Brandel, Fort Lauderdale, FL). Membrane bound radioactivity was determined by liquid scintillation (Ultima Gold; PerkinElmer) counting.
Data was analyzed using PRISM (GraphPad). For saturation binding, non-specific and total binding data were analyzed to a one site binding model. DPM was converted to fmol/mg to compare across constructs. […] […] The Cheng Prusoff equation was used to estimate pKi ([Cheng and Prusoff, 1973]).

Cynomolgus macaques = assay: Resting state qEEG in non-human primates; format: in vivo, Macaca fasicularis; conditions: subcutaneous, 0.3 and 3 mg/kg
From the text: 6 adult male Cynomolgus macaques (Macaca fasicularis; 8-10 kg; 12-15 years old) were used for EEG studies. These animals had been used previously on other studies and were not considered to be pharmacologically naive. Subjects were housed in a temperature-controlled recording room and are maintained on a 12-hour light/dark cycle. The animals had access to water ad libitum and were fed a full daily regimen of food each day (Purina Animal Nutrition, Gray Summit, MO) enriched with fresh fruit and/or vegetables. All studies are conducted in compliance with USDA, NIH and SRI International IACUC guidelines. SRI International is an AAALAC accredited institution. […] Following the acclimation period, animals were dosed subcutaneously with vehicle or compound and EEG activity was recorded for 120 min. […]
Data was analyzed using existing, customized MATLAB scripts with the EEGLAB toolbox. […] Mean absolute power, log transformed absolute power, and relative power was calculated based on each frequency band’s contribution to the total absolute power (i.e., % power). The mean normalized power was subsequently calculated by dividing each frequency band’s absolute power in the drug condition with the corresponding power in the control condition for each individual animal (i.e., use each animal as its own control) and then average across subjects. […]

locomotor activity = assay: Locomotor activity alone or with amphetamine; format: in vivo; conditions: doses up to 100 mg/kg
dogs [4] = assay: Safety pharmacology and toxicology clinical signs, dog
CA1 neurons = assay: In vivo electrophysiological recording of CA1 neurons in anaesthetised rats; parameters: species or system rat
[5] = tested on: Tg37 hemizygous mice inoculated with RML prions; format: in vivo, mouse; conditions: prion mice 9 w.p.i., 30 mg/kg i.p., 24 h after training
human M1 receptor [6] = target: T1, human M1 receptor; assay: pERK1/2 assay in CHO cells overexpressing human M1-receptor; format: cell-based

CCOC(=O)N1CCC[C@H](N2CCC(C(=O)NC3(C)CCC3)CC2)CC1 [HTL9936, ethyl (S)-4-(4-((1-methylcyclobutyl)carbamoyl)piperidin-1-yl)azepane-1-carboxylate]
Kb (human M1 receptor [1]): 6.31 µM | EC50 (human M1 receptor [2]): 0.032 µM | Cardiovascular effects at 3 mg/kg (rats; 3 mg/kg oral): No significant effects | Heart rate and mean arterial blood pressure (rats; oral 3, 10, 30 and 100 mg/kg, 5 h post-dose average): dose-dependent increase in heart rate and mean arterial blood pressure | Time for hemodynamic changes to return to control levels after end of i.v. infusion (dogs [3]; dogs): ≤ 30 min | Blood pressure and heart rate (dogs [3]; telemetered dogs, i.v. infusion): dose-dependent profile of HTL9936 effects on blood pressure, but not heart rate | Ki (M2-receptor): 3.16 µM | qEEG power (Cynomolgus macaques): increased delta power | Adverse responses and locomotor activity (locomotor activity): no adverse responses nor had any effect on locomotor activity | Cu,pl above which clinical signs were observed (dogs [4]): 283 nM | Plasma exposure above which salivation, vomiting, lacrimation were observed (dogs [4]): exceeded 157 ng/mL | In vivo firing rate of CA1 neurons vs vehicle (CA1 neurons; 10 mg/kg i.v., rats): significant increase in the in vivo firing rate of CA1 neurons | In vivo neuronal firing rate (CA1 neurons; adult rats, 1 and 10 mg/kg, reversed by scopolamine i.v.): concentration-dependent increase in neuronal firing rate | Immobility level on re-exposure to training environment [5]: ~ 34% | EC50 (human M1 receptor [6]): 0.032 µM
